Results on 26 compounds are retold here after patent US12612407B2, “Imidazo[2,1-f][1,2,4]triazin-4-amine derivatives as TLR7 agonist” (BEIGENE, LTD., priority 2020, dated 2026).

A value given as a limit tells only on which side of the number the result lay.

This assay deals with T1, human TLR7 (Homo sapiens, UniProt Q9NYK1).
T1 construct: host or cells: HEK293 (HEK-Blue hTLR7)
T1 sequence (Q9NYK1 27-1049): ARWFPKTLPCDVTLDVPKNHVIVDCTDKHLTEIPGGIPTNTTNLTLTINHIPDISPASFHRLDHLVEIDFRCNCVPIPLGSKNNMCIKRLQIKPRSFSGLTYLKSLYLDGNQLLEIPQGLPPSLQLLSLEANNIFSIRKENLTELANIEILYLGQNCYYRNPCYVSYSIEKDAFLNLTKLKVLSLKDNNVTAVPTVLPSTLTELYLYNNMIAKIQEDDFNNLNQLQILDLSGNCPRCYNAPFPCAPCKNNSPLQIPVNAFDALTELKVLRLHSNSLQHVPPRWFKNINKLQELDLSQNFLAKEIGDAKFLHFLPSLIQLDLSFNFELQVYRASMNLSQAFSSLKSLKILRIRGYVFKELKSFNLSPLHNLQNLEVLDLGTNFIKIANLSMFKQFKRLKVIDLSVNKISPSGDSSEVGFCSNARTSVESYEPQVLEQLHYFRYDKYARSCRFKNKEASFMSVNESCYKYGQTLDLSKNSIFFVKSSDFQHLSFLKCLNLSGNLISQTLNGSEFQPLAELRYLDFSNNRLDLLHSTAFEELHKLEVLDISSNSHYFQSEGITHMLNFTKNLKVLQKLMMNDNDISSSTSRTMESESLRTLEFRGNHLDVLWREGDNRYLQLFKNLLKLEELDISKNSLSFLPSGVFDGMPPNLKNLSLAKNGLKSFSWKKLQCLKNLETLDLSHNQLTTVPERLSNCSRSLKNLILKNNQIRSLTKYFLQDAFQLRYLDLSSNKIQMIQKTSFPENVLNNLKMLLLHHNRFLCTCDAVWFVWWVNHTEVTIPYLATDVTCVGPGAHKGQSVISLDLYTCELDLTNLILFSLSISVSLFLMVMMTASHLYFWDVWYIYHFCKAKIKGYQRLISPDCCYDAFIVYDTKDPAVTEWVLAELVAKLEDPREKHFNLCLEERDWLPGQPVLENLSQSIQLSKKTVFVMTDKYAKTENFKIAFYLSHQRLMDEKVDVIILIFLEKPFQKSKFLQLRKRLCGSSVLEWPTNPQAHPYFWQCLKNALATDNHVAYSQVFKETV
Nature of the assay: HEK293-Blue hTLR7 Reporter Assay (QUANTI-BLUE, SEAP readout). The following applies: HEK-Blue-hTLR7 cells, 24 hrs treatment, Table 1, B1-B232. The assay is classed as cell-based. The method, then:
HEK293-Blue hTLR7 Reporter Assay: HEK-Blue-hTLR7 cell line (Invivogen, Cat. No. hkb-htlr7) was designed so that the expression of the secreted embryonic alkaline phosphatase (SEAP) was induced by activating NF-κ and AP-1 via stimulating human TLR7 with TLR7 agonists. HEK-Blue-hTLR7 cells were seeded at a density of 4×10^4 cells/well in a volume of 180 μL in a 96-well plate in DMEM (Cat. No. 11965-092) supplemented with 10% (v/v) heat-inactivated fetal bovine serum (FBS) (Gibco, 10099-1441), 100 U/ml penicillin and 100 μg/ml streptomycin (Gibco, 15140122) containing 50 U/mL penicillin, […] and 10% (v/v) heat-inactivated fetal bovine serum. The cells were settled for 5 hrs, then treated with increasing amounts of tested compounds at 37° C. for 24 hrs. Then 20 μL of the supernatant from each well was incubated with 180 μL Quanti-blue substrate solution at 37° C. for 10-30 mins before the activity of the SEAP was determined at 620-655 nm using a spectrophotometer. The EC50 value for each compound was calculated with GraphPad Prism software using the sigmoidal dose-response function.
`CCCCOc1nc(N)c2ncc(Cc3cnc(N4CCN(C(=O)CNC)CC4)c(C)c3)n2n1` [Compound B32, 1-(4-(5-((4-amino-2-butoxyimidazo[2,1-f][1,2,4]triazin-7-yl)methyl)-3-methylpyridin-2-yl)piperazin-1-yl)-2-(methylamino)ethan-1-one] came in with an EC50 of 66 nM. The value for `CCCCOc1nc(N)c2ncc(Cc3cc(C)c(N4CCNCC4)cn3)n2n1` [Compound B33, 2-butoxy-7-((4-methyl-5-(piperazin-1-yl)pyridin-2-yl)methyl)imidazo[2,1-f][1,2,4]triazin-4-amine] was 218 nM. The compound `CCCCOc1nc(N)c2ncc(Cc3cnc(N4CCCCC4)c(C)c3)n2n1` [Compound B34, 2-butoxy-7-((5-methyl-6-(piperidin-1-yl)pyridin-3-yl)methyl)imidazo[2,1-f][1,2,4]triazin-4-amine] yielded a concentration for a half-maximal effect (EC50) greater than 10000 nM. `CCCCOc1nc(N)c2ncc(Cc3cnc(N4CCCCCC4)c(C)c3)n2n1` [Compound B35, 7-((6-(azepan-1-yl)-5-methylpyridin-3-yl)methyl)-2-butoxyimidazo[2,1-f][1,2,4]triazin-4-amine] came in with an EC50 greater than 10000 nM. Then `CCCCOc1nc(N)c2ncc(Cc3ccc(N4CCNCC4)c(C)c3)n2n1` [Compound B36, 2-butoxy-7-(3-methyl-4-(piperazin-1-yl)benzyl)imidazo[2,1-f][1,2,4]triazin-4-amine], with 182 nM. The value for `CCCCOc1nc(N)c2ncc(Cc3cnc(N4CCN(C(=O)CCN(C)C)CC4)c(C)c3)n2n1` [Compound B37, 1-(4-(5-((4-amino-2-butoxyimidazo[2,1-f][1,2,4]triazin-7-yl)methyl)-3-methylpyridin-2-yl)piperazin-1-yl)-3-(dimethylamino)propan-1-one] was 148 nM; that for `CCCCOc1nc(N)c2ncc(Cc3cnc(N4CC5CCCCC5C4)c(C)c3)n2n1` (centres unmarked) [Compound B38, 2-butoxy-7-((5-methyl-6-(octahydro-2H-isoindol-2-yl)pyridin-3-yl)methyl)imidazo[2,1-f][1,2,4]triazin-4-amine] was greater than 10000 nM.

In turn, `CCCCOc1nc(N)c2ncc(Cc3cnc(N4CCCNCC4)c(C)c3)n2n1` [Compound B39, 7-((6-(1,4-diazepan-1-yl)-5-methylpyridin-3-yl)methyl)-2-butoxyimidazo[2,1-f][1,2,4]triazin-4-amine] showed an EC50 of 465 nM. `CCCCOc1nc(N)c2ncc(Cc3cnc(N4CCN(C(=O)CN5CCNCC5)CC4)c(C)c3)n2n1` [Compound B40, 1-(4-(5-((4-amino-2-butoxyimidazo[2,1-f][1,2,4]triazin-7-yl)methyl)-3-methylpyridin-2-yl)piperazin-1-yl)-2-(piperazin-1-yl)ethan-1-one] returned an EC50 of 908 nM. Regarding `CCCCOc1nc(N)c2ncc(Cc3cnc(N4CCN(C(=O)C5CNCCN5)CC4)c(C)c3)n2n1` (centres unmarked) [Compound B41, (4-(5-((4-amino-2-butoxyimidazo[2,1-f][1,2,4]triazin-7-yl)methyl)-3-methylpyridin-2-yl)piperazin-1-yl)(piperazin-2-yl)methanone], the response was half-maximal at 600 nM (EC50).

`Cc1cc(Cc2cnc3c(N)nc(OCCn4ccnc4)nn23)cnc1N1CCNCC1` [Compound B42, 2-(2-(1H-imidazol-1-yl)ethoxy)-7-((5-methyl-6-(piperazin-1-yl)pyridin-3-yl)methyl)imidazo[2,1-f][1,2,4]triazin-4-amine] gave a concentration for a half-maximal effect (EC50) greater than 10000 nM. Then `CCCCCCCCOc1nc(N)c2ncc(Cc3cnc(N4CCNCC4)c(C)c3)n2n1` [Compound B43, 7-((5-methyl-6-(piperazin-1-yl)pyridin-3-yl)methyl)-2-(octyloxy)imidazo[2,1-f][1,2,4]triazin-4-amine], with greater than 10000 nM. `C=CC(=O)N1CCN(c2ncc(Cc3cnc4c(N)nc(OCCCC)nn34)cc2C)CC1` [Compound B44, 1-(4-(5-((4-amino-2-butoxyimidazo[2,1-f][1,2,4]triazin-7-yl)methyl)-3-methylpyridin-2-yl)piperazin-1-yl)prop-2-en-1-one] came in with an EC50 of 6660 nM. Take `CCCCOc1nc(N)c2ncc(Cc3ccc(N4CCNCC4)c(OC)c3)n2n1` [Compound B45, 2-butoxy-7-(3-methoxy-4-(piperazin-1-yl)benzyl)imidazo[2,1-f][1,2,4]triazin-4-amine]: the concentration for a half-maximal effect (EC50) was found to be 418 nM.

As for `CCCCOc1nc(N)c2ncc(Cc3ccc(N4CCNCC4)c(OC(C)C)c3)n2n1` [Compound B46, 2-butoxy-7-(3-isopropoxy-4-(piperazin-1-yl)benzyl)imidazo[2,1-f][1,2,4]triazin-4-amine], the concentration giving a half-maximal response (EC50) was 960 nM. `CCCCOc1nc(N)c2ncc(Cc3cc(C)c(C4CCNCC4)cn3)n2n1` [Compound B47, 2-butoxy-7-((4-methyl-5-(piperidin-4-yl)pyridin-2-yl)methyl)imidazo[2,1-f][1,2,4]triazin-4-amine]: a half-maximal effect (EC50) was put at 462 nM. Compound `CCCCOc1nc(N)c2ncc(Cc3cnc(N4CCNCC4)cc3C)n2n1` [Compound B48, 2-butoxy-7-((4-methyl-6-(piperazin-1-yl)pyridin-3-yl)methyl)imidazo[2,1-f][1,2,4]triazin-4-amine] showed an EC50 of 4770 nM. In turn, `CCCCOc1nc(N)c2ncc(Cc3cnc(N4CCN(C(=O)CCCN(C)C)CC4)c(C)c3)n2n1` [Compound B49, 1-(4-(5-((4-amino-2-butoxyimidazo[2,1-f][1,2,4]triazin-7-yl)methyl)-3-methylpyridin-2-yl)piperazin-1-yl)-4-(dimethylamino)butan-1-one] gave an EC50 of 124 nM.

With `CCCCOc1nc(N)c2ncc(Cc3cnc(N4CCN(C(=O)CCCCN(C)C)CC4)c(C)c3)n2n1` [Compound B50, 1-(4-(5-((4-amino-2-butoxyimidazo[2,1-f][1,2,4]triazin-7-yl)methyl)-3-methylpyridin-2-yl)piperazin-1-yl)-5-(dimethylamino)pentan-1-one], the EC50 stood at 151 nM. `CCCCOc1nc(N)c2ncc(Cc3cnc(N4CCCC4)c(C)c3)n2n1` [Compound B51, 2-butoxy-7-((5-methyl-6-(pyrrolidin-1-yl)pyridin-3-yl)methyl)imidazo[2,1-f][1,2,4]triazin-4-amine] yielded a half-maximal effective concentration (EC50) greater than 10000 nM. Regarding `CCCCOc1nc(N)c2ncc(Cc3cnc(N4CCOCC4)c(C)c3)n2n1` [Compound B52, 2-butoxy-7-((5-methyl-6-morpholinopyridin-3-yl)methyl)imidazo[2,1-f][1,2,4]triazin-4-amine], the concentration for a half-maximal effect (EC50) is greater than 10000 nM. Then `CCCCOc1nc(N)c2ncc(Cc3ccc(N4CCNCC4)nc3C)n2n1` [Compound B53, 2-butoxy-7-((2-methyl-6-(piperazin-1-yl)pyridin-3-yl)methyl)imidazo[2,1-f][1,2,4]triazin-4-amine], with 803 nM; and `CCCCOc1nc(N)c2ncc(Cc3ccc(C4CCNCC4)nc3C)n2n1` [Compound B54, 2-butoxy-7-((2-methyl-6-(piperidin-4-yl)pyridin-3-yl)methyl)imidazo[2,1-f][1,2,4]triazin-4-amine], with 158 nM. The value for `CCCCOc1nc(N)c2ncc(Cc3cnc(N4CC(C)NC(C)C4)c(C)c3)n2n1` (centres unmarked) [Compound B55, 2-butoxy-7-((6-(3,5-dimethylpiperazin-1-yl)-5-methylpyridin-3-yl)methyl)imidazo[2,1-f][1,2,4]triazin-4-amine] was 196 nM; that for `CCCCOc1nc(N)c2ncc(Cc3cnc(N4CCN(C(=O)C5CCNCC5)CC4)c(C)c3)n2n1` [Compound B56, (4-(5-((4-amino-2-butoxyimidazo[2,1-f][1,2,4]triazin-7-yl)methyl)-3-methylpyridin-2-yl)piperazin-1-yl)(piperidin-4-yl)methanone] was 422 nM. Then `CCCCOc1nc(N)c2ncc(Cc3cnc(N4CCN(C(C)=O)CC4)c(C)c3)n2n1` [Compound B57, 1-(4-(5-((4-amino-2-butoxyimidazo[2,1-f][1,2,4]triazin-7-yl)methyl)-3-methylpyridin-2-yl)piperazin-1-yl)ethan-1-one], with 3800 nM.
